Measurements taken from patent US11753397B2, “Cereblon binders for the degradation of ikaros” (C4 Therapeutics, Inc., priority 2018, dated 2023).

Tested on: NCIH929.1 cells
Experiment: Cell viability assay (CellTiter-Glo 2.0, ATP quantification)
Assay type: cell-based
Conditions: NCIH929.1 cell viability, CellTiter-Glo 2.0, 96 hr incubation, top concentration 1 μM
How it was run: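 Cells seeded at 750/well in RPMI with 10% FBS and 0.05 mM 2-mercaptoethanol, exposed 96 h at 37 °C to 10-point half-log dilutions in duplicate, top 1 μM. Viability by CellTiter-Glo 2.0 ATP luminescence, with a day-0 read as cytostatic baseline (CT0).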

## O=C1CCC(N2C(=O)c3cccc(NCc4cnn(C5CCN(C(=O)C6CCN(C(=O)C7CCC7)CC6)CC5)c4)c3C2=O)C(=O)N1 (stereo not shown) [Compound 112, 4-(((1-(1-(1-(cyclobutanecarbonyl)piperidine-4-carbonyl)piperidin-4-yl)-1H-pyrazol-4-yl)methyl)amino)-2-(2,6-dioxopiperidin-3-yl)isoindoline-1,3-dione]
  GI50: < 100 nM

## O=C1CCC(N2C(=O)c3cccc(NCc4cnn(C5CCN(C(=O)C6CCN(C(=O)Cc7ccccc7)CC6)CC5)c4)c3C2=O)C(=O)N1 (stereo not shown) [Compound 113, 2-(2,6-dioxopiperidin-3-yl)-4-(((1-(1-(1-(2-phenylacetyl)piperidine-4-carbonyl)piperidin-4-yl)-1H-pyrazol-4-yl)methyl)amino)isoindoline-1,3-dione]
  GI50: < 100 nM

## CCc1ccc2c(CC(=O)N3CCC(n4cc(CNc5cccc6c5C(=O)N(C5CCC(=O)NC5=O)C6=O)cn4)CC3)coc2c1 (stereo not shown) [Compound 114, 2-(2,6-dioxoopiperidin-3-yl)-4-(((1-(1-(2-(6-ethylbenzofuran-3-yl)acetyl)piperidin-4-yl)-1H-pyrazol-4-yl)methyl)amino)isoindoline-1,3-dione]
  GI50: < 100 nM

## Cc1cccc(-c2nc(CC(=O)N3CCC(n4cc(CNc5cccc6c5C(=O)N(C5CCC(=O)NC5=O)C6=O)cn4)CC3)c(C)o2)c1 (stereo not shown) [Compound 115, 2-(2,6-dioxopiperidin-3-yl)-4-(((1-(1-(2-(5-methyl-2-(m-tolyl)oxazol-4-yl)acetyl)piperidin-4-yl)-1H-pyrazol-4-yl)methyl)amino)isoindoline-1,3-dione]
  GI50: < 100 nM

## O=C1CCC(N2C(=O)c3cccc(NCc4cnn(C5CCN(C(=O)Cc6coc(-c7ccccc7)n6)CC5)c4)c3C2=O)C(=O)N1 (stereo not shown) [Compound 116, 2-(2,6-dioxopiperidin-3-yl)-4-(((1-(1-(2-(2-phenyloxazol-4-yl)acetyl)piperidin-4-yl)-1H-pyrazol-4-yl)methyl)amino)isoindoline-1,3-dione]
  GI50: < 100 nM

## O=C1CCC(N2C(=O)c3cccc(NCc4cnn(C5CCN(C(=O)CC6CCC(c7ccccc7)CC6)CC5)c4)c3C2=O)C(=O)N1 (stereo not shown) [Compound 117, 2-(2,6-dioxopiperidin-3-yl)-4-(((1-(1-(2-(4-phenylcyclohexyl)acetyl)piperidin-4-yl)-1H-pyrazol-4-yl)methyl)amino)isoindoline-1,3-dione]
  GI50: < 100 nM

## Cc1ccc(N2CCC(C(=O)N3CCC(n4cc(CNc5cccc6c5C(=O)N(C5CCC(=O)NC5=O)C6=O)cn4)CC3)CC2)nc1 (stereo not shown) [Compound 118, 2-(2,6-dioxopiperidin-3-yl)-4-(((1-(1-(1-(5-methylpyridin-2-yl)piperidine-4-carbonyl)piperidin-4-yl)-1H-pyrazol-4-yl)methyl)amino)isoindoline-1,3-dione]
  GI50: < 1 nM

## O=C1CCC(N2C(=O)c3cccc(NCc4cnn(C5CCN(C(=O)c6cccc(Cn7cccn7)c6)CC5)c4)c3C2=O)C(=O)N1 (stereo not shown) [Compound 119, 4-(((1-(1-(3-((1H-pyrazol-1-yl)methyl)benzoyl)piperidin-4-yl)-1H-pyrazol-4-yl)methyl)amino)-2-(2,6-dioxopiperidin-3-yl)isoindoline-1,3-dione]
  GI50: < 100 nM

## O=C1CCC(N2C(=O)c3cccc(NCc4cnn(C5CCN(C(=O)Cc6cnn(-c7ccccc7)c6)CC5)c4)c3C2=O)C(=O)N1 (stereo not shown) [Compound 120, 2-(2,6-dioxopiperidin-3-yl)-4-(((1-(1-(2-(1-phenyl-1H-pyrazol-4-yl)acetyl)piperidin-4-yl)-1H-pyrazol-4-yl)methyl)amino)isoindoline-1,3-dione]
  GI50: < 100 nM

## CC(C)(C)OC(=O)N1CCC(C(=O)N2CCC(n3cc(CNc4cccc5c4C(=O)N(C4CCC(=O)NC4=O)C5=O)cn3)CC2)CC1 (stereo not shown) [Compound 121, tert-butyl 4-(4-(4-(((2-(2,6-dioxopiperidin-3-yl)-1,3-dioxoisoindolin-4-yl)amino)methyl)-1H-pyrazol-1-yl)piperidine-1-carbonyl)piperidine-1-carboxylate]
  GI50: < 100 nM

## Cc1cncc(N2CCC(C(=O)N3CCC(n4cc(CNc5cccc6c5C(=O)N(C5CCC(=O)NC5=O)C6=O)cn4)CC3)CC2)n1 (stereo not shown) [Compound 122, 2-(2,6-dioxopiperidin-3-yl)-4-(((1-(1-(1-(6-methylpyrazin-2-yl)piperidine-4-carbonyl)piperidin-4-yl)-1H-pyrazol-4-yl)methyl)amino)isoindoline-1,3-dione]
  GI50: < 1 nM

## O=C1CCC(N2C(=O)c3cccc(NCc4cnn(C5CCN(C(=O)CC6CCN(C(=O)c7ccccc7)CC6)CC5)c4)c3C2=O)C(=O)N1 (stereo not shown) [Compound 123, 4-(((1-(1-(2-(1-benzoylpiperidin-4-yl)acetyl)piperidin-4-yl)-1H-pyrazol-4-yl)methyl)amino)-2-(2,6-dioxopiperidin-3-yl)isoindoline-1,3-dione]
  GI50: < 100 nM

## O=C1CCC(N2C(=O)c3cccc(NCc4cnn(C5CCN(C(=O)Cc6ccc7c(c6Cl)OCCCO7)CC5)c4)c3C2=O)C(=O)N1 (stereo not shown) [Compound 124, 4-(((1-(1-(2-(6-chloro-3,4-dihydro-2H-benzo[b][1,4]dioxepin-7-yl)acetyl)piperidin-4-yl)-1H-pyrazol-4-yl)methyl)amino)-2-(2,6-dioxopiperidin-3-yl)isoindoline-1,3-dione]
  GI50: < 100 nM

## Cn1nc(C2CC2)cc1CC(=O)N1CCC(n2cc(CNc3cccc4c3C(=O)N(C3CCC(=O)NC3=O)C4=O)cn2)CC1 (stereo not shown) [Compound 125, 4-(((1-(1-(2-(3-cyclopropyl-1-methyl-1H-pyrazol-5-yl)acetyl)piperidin-4-yl)-1H-pyrazol-4-yl)methyl)amino)-2-(2,6-dioxopiperidin-3-yl)isoindoline-1,3-dione]
  GI50: < 100 nM

## O=C1CCC(N2C(=O)c3cccc(NCc4cnn(C5CCN(C(=O)CC6CCN(C(=O)C7CCC7)CC6)CC5)c4)c3C2=O)C(=O)N1 (stereo not shown) [Compound 126, 4-(((1-(1-(2-(1-(cyclobutanecarbonyl)piperidin-4-yl)acetyl)piperidin-4-yl)-1H-pyrazol-4-yl)methyl)amino)-2-(2,6-dioxopiperidin-3-yl)isoindoline-1,3-dione]
  GI50: < 100 nM

## O=C1CCC(N2C(=O)c3cccc(NCc4cnn(C5CCN(CC6CCCCC6)CC5)c4)c3C2=O)C(=O)N1 (stereo not shown) [Compound 127, 4-(((1-(1-(cyclohexylmethyl)piperidin-4-yl)-1H-pyrazol-4-yl)methyl)amino)-2-(2,6-dioxopiperidin-3-yl)isoindoline-1,3-dione]
  GI50: < 100 nM

## O=C1CCC(N2C(=O)c3cccc(NCc4cnn(C5CCN(CC6CCCC6)CC5)c4)c3C2=O)C(=O)N1 (stereo not shown) [Compound 128, 4-(((1-(1-(cyclopentylmethyl)piperidin-4-yl)-1H-pyrazol-4 yl)methyl)amino)-2-(2,6-dioxopiperidin-3-yl)isoindoline-1,3-dione]
  GI50: < 100 nM

## O=C1CCC(N2C(=O)c3cccc(NCc4cnn(C5CCN(C6CCC6)CC5)c4)c3C2=O)C(=O)N1 (stereo not shown) [Compound 129, 4-(((1-(1-cyclobutylpiperidin-4-yl)-1H-pyrazol-4-yl)methyl)amino)-2-(2,6-dioxopiperidine-3-yl)isoindoline-1,3-dione]
  GI50: < 100 nM

## O=C1CCC(N2C(=O)c3cccc(NCc4cnn(C5CCN(C6CCCC6)CC5)c4)c3C2=O)C(=O)N1 (stereo not shown) [Compound 130, 4-(((1-(1-cyclopentylpiperidin-4-yl)-1H-pyrazol-4-yl)methyl)amino)-2-(2,6-dioxopiperidin-3-yl)isoindoline-1,3-dione]
  GI50: < 100 nM
